Our source for the IC50 values is patent US9102701B2, “17-hydroxy-17-pentafluoroethyl-estra-4,9(10)-diene-11-ethynylphenyl derivatives, methods for the production thereof and use thereof for treating diseases” (Bayer Intellectual Property GmbH, priority 2009, dated 2015).

For experiment [1], the target named is T1, human progesterone receptor A (Homo sapiens, UniProt P06401).
T1 construct: expressed in transfected cells; host or cells: SK-N-MC human neuroblastoma cells, stably transfected with pRChPR-A-neo and pMMTV-LUC
T1 sequence (P06401 1-769 isoform P06401-2): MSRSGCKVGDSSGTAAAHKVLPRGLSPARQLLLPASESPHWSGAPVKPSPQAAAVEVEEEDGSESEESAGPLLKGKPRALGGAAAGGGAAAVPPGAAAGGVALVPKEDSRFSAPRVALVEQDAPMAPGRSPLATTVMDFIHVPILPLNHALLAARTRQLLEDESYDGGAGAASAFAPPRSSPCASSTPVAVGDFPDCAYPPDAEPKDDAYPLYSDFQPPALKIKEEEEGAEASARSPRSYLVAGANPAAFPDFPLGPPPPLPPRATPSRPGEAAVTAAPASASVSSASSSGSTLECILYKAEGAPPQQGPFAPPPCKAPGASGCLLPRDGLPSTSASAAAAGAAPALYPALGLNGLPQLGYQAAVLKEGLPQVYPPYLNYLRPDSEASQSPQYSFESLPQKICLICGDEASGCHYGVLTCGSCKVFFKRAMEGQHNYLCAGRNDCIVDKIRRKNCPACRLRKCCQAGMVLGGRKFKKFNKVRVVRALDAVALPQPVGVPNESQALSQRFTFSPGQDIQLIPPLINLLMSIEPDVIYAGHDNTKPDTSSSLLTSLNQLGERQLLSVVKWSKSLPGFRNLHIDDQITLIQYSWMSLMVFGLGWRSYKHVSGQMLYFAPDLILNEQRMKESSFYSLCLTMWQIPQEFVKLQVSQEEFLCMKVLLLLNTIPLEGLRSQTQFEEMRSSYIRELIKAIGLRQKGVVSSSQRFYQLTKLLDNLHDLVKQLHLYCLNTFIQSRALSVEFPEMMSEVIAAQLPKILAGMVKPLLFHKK
Briefly: Progesterone receptor-antagonistic action in stably transfected SK-N-MC cells, PR-A, MMTV-LUC reporter. In kind it is cell-based. How it is done: (§1) Determination of Progesterone Receptor-Antagonistic Action in Stable Transfectants of Human Neuroblastoma Cells (SK-N-MC Cells) with the Human Progesterone a or Progesterone B Receptor and an MN-LUC Reporter Construct
(§2) SK-N-MC cells (human neuroblastoma cells) which have been stably transfected with plasmids expressing the human progesterone receptor B (pRChPR-B-neo) or the human progesterone receptor A (pRChPR-A-neo) and a reporter construct (pMMTV-LUC) were incubated for 24 hours either in the absence (negative control) or in the presence of ascending amounts of the particular test compound (0.01 nmol/l, 0.1 nmol/l, 1 nmol/l, 10 nmol/l, 100 nmol/l and […]), in order to determine the agonistic efficacy. As a positive control of the reporter gene induction, the cells were treated with the synthetic gestagen promegestone (0.01 nmol/l, 0.1 nmol/l, 1 nmol/l, 10 nmol/l, 100 nmol/l and […]). To determine the antagonistic activity, the cells were treated with 0.1 nmol/l promegestone and additionally with ascending amounts of the particular test compound (0.01 nmol/l, 0.1 nmol/l, 1 nmol/l, 10 nmol/l, 100 nmol/l and […]). The activity of the reporter gene LUC (LUC=luciferase) was determined in the cell lysates and measured as RLU (relative light units). All measurements are reported as % efficacy and as EC50 and IC50 concentrations.

For experiment [2], the target named is T2, human progesterone receptor B (Homo sapiens, UniProt P06401).
T2 construct: expressed in transfected cells; host or cells: SK-N-MC human neuroblastoma cells, stably transfected with pRChPR-B-neo and pMMTV-LUC
T2 sequence (P06401 1-933): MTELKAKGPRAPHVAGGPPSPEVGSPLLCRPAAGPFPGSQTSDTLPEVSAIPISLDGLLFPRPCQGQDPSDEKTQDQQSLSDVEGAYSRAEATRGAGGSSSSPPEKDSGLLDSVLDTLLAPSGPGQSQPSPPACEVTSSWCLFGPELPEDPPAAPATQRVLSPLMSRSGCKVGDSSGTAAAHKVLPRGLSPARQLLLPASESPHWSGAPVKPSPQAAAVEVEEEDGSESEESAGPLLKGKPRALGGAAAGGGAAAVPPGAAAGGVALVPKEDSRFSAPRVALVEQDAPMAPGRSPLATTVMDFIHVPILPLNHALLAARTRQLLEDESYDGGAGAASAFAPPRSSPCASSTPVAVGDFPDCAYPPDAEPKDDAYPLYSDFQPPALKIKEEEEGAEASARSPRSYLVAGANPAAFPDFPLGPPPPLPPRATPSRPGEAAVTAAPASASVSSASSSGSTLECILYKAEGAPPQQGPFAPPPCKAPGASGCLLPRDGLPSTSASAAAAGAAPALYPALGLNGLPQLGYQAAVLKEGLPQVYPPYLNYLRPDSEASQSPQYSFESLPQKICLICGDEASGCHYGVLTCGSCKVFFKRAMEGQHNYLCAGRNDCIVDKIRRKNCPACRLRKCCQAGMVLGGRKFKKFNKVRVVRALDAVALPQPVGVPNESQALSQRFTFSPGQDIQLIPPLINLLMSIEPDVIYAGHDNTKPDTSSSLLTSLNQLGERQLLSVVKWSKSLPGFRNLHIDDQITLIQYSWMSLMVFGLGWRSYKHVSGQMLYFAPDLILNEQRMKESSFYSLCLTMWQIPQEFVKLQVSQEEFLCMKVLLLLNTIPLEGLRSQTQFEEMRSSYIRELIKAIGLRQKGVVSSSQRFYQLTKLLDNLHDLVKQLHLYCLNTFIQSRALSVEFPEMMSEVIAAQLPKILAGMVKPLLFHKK
Put plainly: Progesterone receptor-antagonistic action in stably transfected SK-N-MC cells, PR-B, MMTV-LUC reporter. In kind it is cell-based. On the procedure:
as §1, §2

Each structure is given as a SMILES string. pIC50: −log10 of the molar value. Read-outs that look alike come from different tables or passages of the source.

As to `C[C@]12C[C@H](c3ccc(C#CCOCC(=O)O)cc3)C3=C4CCC(=O)C=C4CCC3C1CC[C@@]2(O)C(F)(F)C(F)(F)F` (stereo partly drawn) [Example 10, {3-[4-((8S,11R,13S,14S,17S)-17-hydroxy-13-methyl-3-oxo-17-pentafluoroethyl-2,3,6,7,8,11,12,13,14,15,16,17-dodecahydro-1H-cyclopenta[a]phenanthren-1′-yl)phenyl]prop-2-ynyloxy}acetic acid], the pIC50 was 8.05 in experiment [1] (read-out: IC50 PR-A) and 8.00 in experiment [2] (read-out: IC50 PR-B).
For `C=CCNC(=O)NCC#Cc1ccc([C@H]2C[C@@]3(C)[C@@H](CC[C@@]3(O)C(F)(F)C(F)(F)F)[C@@H]3CCC4=CC(=O)CCC4=C32)cc1` [Example 41, 1-allyl-3-{3-[4-((8S,11R,13S,14S,17S)-17-hydroxy-13-methyl-3-oxo-17-pentafluoroethyl-2,3,6,7,8,11,12,13,14,15,16,17-dodecahydro-1H-cyclopenta[a]phenanthren-1′-yl)phenyl]prop-2-ynyl}urea], in that order: 10.00 and 10.00.
On the same counts, the results for `CC(C)NC(=O)NCC#Cc1ccc([C@H]2C[C@@]3(C)[C@@H](CC[C@@]3(O)C(F)(F)C(F)(F)F)[C@@H]3CCC4=CC(=O)CCC4=C32)cc1` [Example 29, 1-{3-[4-((8S,11R,13S,14S,17S)-17-hydroxy-13-methyl-3-oxo-17-pentafluoroethyl-2,3,6,7,8,11,12,13,14,15,16,17-dodecahydro-1H-cyclopenta[a]phenanthren-11-yl)phenyl]prop-2-ynyl}-3-isopropylurea] are 10.00 and 10.00.
For `CC(C)(C)OC(=O)COCC#Cc1ccc([C@H]2C[C@@]3(C)[C@@H](CC[C@@]3(O)C(F)(F)C(F)(F)F)[C@@H]3CCC4=CC(=O)CCC4=C32)cc1` [Example 8, {3-[4-((8S,11R,13S,14S,17S)-17-hydroxy-13-methyl-3-oxo-17-pentafluoroethyl-2,3,6,7,8,11,12,13,14,15,16,17-dodecahydro-1H-cyclopenta[a]phenanthren-11-yl)phenyl]prop-2-ynyloxy}acetic acid tert-butyl ester], in that order: 9.49 and 9.39.
For `COc1ccc(NC(=O)NCC#Cc2ccc([C@H]3C[C@@]4(C)[C@@H](CC[C@@]4(O)C(F)(F)C(F)(F)F)[C@@H]4CCC5=CC(=O)CCC5=C43)cc2)cc1` [Example 32, 1-{3-[4-((8S,11R,13S,14S,17S)-17-hydroxy-13-methyl-3-oxo-17-pentafluoroethyl-2,3,6,7,8,11,12,13,14,15,16,17-dodecahydro-1H-cyclopenta[a]phenanthren-11-yl)phenyl]prop-2-ynyl}-3-(4-methoxyphenyl)urea], the pIC50 in experiment [1] (read-out: IC50 PR-A) was 9.70; in experiment [2] (read-out: IC50 PR-B) it was 10.00.
`CCOC(=O)c1ccc(NC(=O)OCC#Cc2ccc([C@H]3C[C@@]4(C)[C@@H](CC[C@@]4(O)C(F)(F)C(F)(F)F)[C@@H]4CCC5=CC(=O)CCC5=C43)cc2)cc1` [Example 53, 4-{3-[4-((8S,11R,13S,14S,17S)-17-hydroxy-13-methyl-3-oxo-17-pentafluoroethyl-2,3,6,7,8,11,12,13,14,15,16,17-dodecahydro-1H-cyclopenta[a]phenanthren-11-yl)phenyl]prop-2-ynyloxycarbonylamino}benzoic acid ethyl ester]: the values for the pIC50 in experiment [1] (read-out: IC50 PR-A) and in experiment [2] (read-out: IC50 PR-B) were 9.80 and 9.72, respectively.
On the same counts, the results for `CCOC(=O)C=CC=CC#Cc1ccc([C@H]2C[C@@]3(C)C(CC[C@@]3(O)C(F)(F)C(F)(F)F)C3CCC4=CC(=O)CCC4=C32)cc1` (stereo partly drawn) [Example 7, 7-(2E/Z,4E/Z)-[4-((8S,11R,13S,14S,17S)-17-hydroxy-13-methyl-3-oxo-17-pentafluoroethyl-2,3,6,7,8,11,12,13,14,15,16,17-dodecahydro-1H-cyclopenta[a]phenanthren-1′-yl)phenyl]hepta-2,4-dien-6-ynoic acid ethyl ester] are 9.10 and 9.05.
Turning to `CC(C)NC(=O)OCC#Cc1ccc([C@H]2C[C@@]3(C)C(CC[C@@]3(O)C(F)(F)C(F)(F)F)C3CCC4=CC(=O)CCC4=C32)cc1` (stereo partly drawn) [Example 49, isopropylcarbamic acid 3-[4-((8S,11R,13S,14S,17S)-17-hydroxy-13-methyl-3-oxo-17-pentafluoroethyl-2,3,6,7,8,11,12,13,14,15,16,17-dodecahydro-1H-cyclopenta[a]phenanthren-1′-yl)phenyl]prop-2-ynyl ester], the pIC50 in experiment [1] (read-out: IC50 PR-A) is 11.00; in experiment [2] (read-out: IC50 PR-B), 10.15.
For `C[C@]12C[C@H](c3ccc(C#CCOC(=O)NCc4ccccc4)cc3)C3=C4CCC(=O)C=C4CCC3C1CC[C@@]2(O)C(F)(F)C(F)(F)F` (stereo partly drawn) [Example 50, benzylcarbamic acid 3-[4-((8S,11R,13S,14S,17S)-17-hydroxy-13-methyl-3-oxo-17-pentafluoroethyl-2,3,6,7,8,11,12,13,14,15,16,17-dodecahydro-1H-cyclopenta[a]phenanthren-1′-yl)phenyl]prop-2-ynyl ester], in that order: 11.00 and 10.52.
For `COC(=O)COCC#Cc1ccc([C@H]2C[C@@]3(C)[C@@H](CC[C@@]3(O)C(F)(F)C(F)(F)F)[C@@H]3CCC4=CC(=O)CCC4=C32)cc1` [Example 9, {3-[4-((8S,11R,13S,14S,17S)-17-hydroxy-13-methyl-3-oxo-17-pentafluoroethyl-2,3,6,7,8,11,12,13,14,15,16,17-dodecahydro-1H-cyclopenta[a]phenanthren-11-yl)phenyl]prop-2-ynyloxy}acetic acid methyl ester], in that order: 8.09 and 8.00.
On the same counts, the results for `CC(C)(C)NC(=O)OCC#Cc1ccc([C@H]2C[C@@]3(C)C(CC[C@@]3(O)C(F)(F)C(F)(F)F)C3CCC4=CC(=O)CCC4=C32)cc1` (stereo partly drawn) [Example 58, tert-butylcarbamic acid 3-[4-((8S,11R,13S,14S,17S)-17-hydroxy-13-methyl-3-oxo-17-pentafluoroethyl-2,3,6,7,8,11,12,13,14,15,16,17-dodecahydro-1H-cyclopenta[a]phenanthren-1′-yl)phenyl]prop-2-ynyl ester] are 10.05 and 11.00.
For the compound `COC(=O)C#Cc1ccc([C@H]2C[C@@]3(C)C(CC[C@@]3(O)C(F)(F)C(F)(F)F)C3CCC4=CC(=O)CCC4=C32)cc1` (stereo partly drawn) [Example 3, [4-((8S,11R,13S,14S,17S)-17-hydroxy-13-methyl-3-oxo-17-pentafluoroethyl-2,3,6,7,8,11,12,13,14,15,16,17-dodecahydro-1H-cyclopenta[a]phenanthren-1′-yl)phenyl]propynoic acid methyl ester], the pIC50 was 8.74 in experiment [1] and 8.92 in experiment [2].
